“Also recorded” adds a separate entry of the source.
Experiments:
Assay type in all cases: cell-based, human
GBM cells = experiment: GBM cell death, trypan blue counting; details: for cell death caused by DGAT1 inhibition (rescue): co-treatment with DGAT1 inhibition (A-922500 20 μg/ml, 3 days), U251
liver cancer cells = experiment: Liver cancer cell death with DGAT1 and DGAT2 inhibitors alone or in combination
Description: MHCC97L 6×10^4 12 well plate, treated at 24 hours with 1% FBS DMEM with DGAT1 and DGAT2 inhibitors. Picture taken on day 4.
HEPG2 6×10^4 12 well plate, treated at 24 hours with 1% FBS DMEM with DGAT1 and DGAT2 inhibitors. Picture taken on day 4.
HeG2 8×10^4 12 well plate, treated at 24 hours with 1% FBS DMEM with DGAT1 and DGAT2 inhibitors. Picture taken on day 4.
Huh7 4×10^4 12-well plate, treated at 24 hours with 1% FBS DMEM with DGAT1 and DGAT2 inhibitors. Picture taken on day 4.
Hep3B 6×10^4 12-well plate, treated at 24 hours with 1% FBS DMEM with DGAT1 and DGAT2 inhibitors. Picture taken on day 4.
Huh7 6×10^4 12-well plate, treated at 24 hours with 1% FBS DMEM with DGAT1 and DGAT2 inhibitors. Picture taken on day 4.

GBM cells (U251) = experiment: ROS detection with CellROX Deep Red; details: co-treatment (NAC 1 mM; ETO 6 μM) with DGAT1 inhibition
Description: (A, B) Transmission electron microscopy (TEM) analysis of the mitochondrial morphology in GBM cells (U251) treated with the DGAT1 inhibitor A-922500 (20 μg/ml) or DGAT2 inhibitor PF-06424439 (20 μg/ml) for 24 hr and shown in a or infected with shRNA-expressing lentivirus against DGAT1 for 48 hr and shown in b. Scale bar, 500 nm. Mitochondria are indicated by red arrows. Mitochondria length and loss of cristae (%) were quantified by ImageJ over 100 mitochondria in each group (mean±SEM). Statistical significance was determined by one-way ANOVA. * P<0.0001. (C, D) Representative fluorescence images of LDs (green) and mitochondria (red) in U251 cells treated with DGAT1 or DGAT2 inhibitor and shown in c or shRNA in (D) as in panels (A, B). […] The percentage of cells with tubular or fragmented mitochondria was quantified by ImageJ in more than 100 cells (mean±SEM). Statistical significance was determined by one-way ANOVA. * P<0.001. […] Lower panels show the quantification of relative basal and maximal OCR change (details please see Methods). […] Basal OCR was determined as OCR before oligomycin subtract OCR after rotenone addition, and maximal OCR was determined as OCR after FCCP subtract OCR after rotenone addition. Statistical significance was determined by one-way ANOVA. * P<0.0001. […] ROS were detected with CellROX Deep Red, and mitochondria were stained with MitoTracker Green. […]

[1] = DGAT1 inhibitor in combination with DGAT2 inhibitor

Cc1cc(=O)oc2c(C=O)c(O)ccc12 [4μ8C]
cell death caused by DGAT1 inhibition (rescue) (GBM cells): did not exert any rescue effects; also recorded: No rescue effects

Cc1cccc(CC(=O)N2CCc3c2ccc(-c2cn(C)c4ncnc(N)c24)c3F)n1 [GSK2656157]
cell death caused by DGAT1 inhibition (rescue) (GBM cells): did not exert any rescue effects; also recorded: No rescue effects

CCCCCCC(=O)CCCCCC/C=C/C[C@@H](O)[C@H](O)[C@@](N)(CO)C(=O)O [myriocin]
cell death caused by DGAT1 inhibition (rescue) (GBM cells): no rescue effects; also recorded: does not rescue cell death

N#Cc1ccc(Oc2ccc(/C=C3\SC(=NCCc4ccccn4)NC3=O)cc2F)c(Br)c1 [JNJ DGAT2-A]
liver cancer cell death (liver cancer cells; [1]): effective to kill liver cancer cells
liver cancer cell death (liver cancer cells; each single inhibitor): no ability to induce liver cancer cell death

CCOC(=O)[C@@]1(CCCCCCOc2ccc(Cl)cc2)CO1 [ETO]
ROS caused by DGAT1 inhibition (GBM cells (U251)): significantly reduced
cell death caused by DGAT1 inhibition (rescue) (GBM cells): significantly reduced

O=C(O)C[C@H]1CC[C@H](c2ccc(-c3ccc(Nc4ccc(C(F)(F)F)nc4)cn3)cc2)CC1 [Pradigastat]
liver cancer cell death (liver cancer cells; [1]): effective to kill liver cancer cells
liver cancer cell death (liver cancer cells; each single inhibitor): no ability to induce liver cancer cell death

CC(=O)N[C@@H](CS)C(=O)O [NAC, N-acetyl-cysteine]
ROS caused by DGAT1 inhibition (GBM cells (U251)): significantly decreased
acylcarnitine-induced GBM cell death (GBM cells; NAC 1 mM with acylcarnitines 20 μM, 2 days): significantly reduced
cell death caused by DGAT1 inhibition (rescue) (GBM cells): significantly decreased

Source: patent US20240148679A1, “METHODS AND COMPOSITIONS RELATED TO TREATMENT AND PREVENTION OF CANCER BY INHIBITION OF DGAT1 AND DGAT2” (Ohio State Innovation Foundation, priority 2019, published 2024)
